Here are results for eight compounds from patent publication US20120122820A1, “PRODRUGS AND THE USE THEREOF” (Bayer Schering Pharma Aktiengesellschaft, priority 2007, published 2012).

Series [1] in a line: Stability in buffer at various pH values. The series is classed as physicochemical. As for the experimental part: 0.3 mg of the test substance is weighed into a 2 ml HPLC vial and 0.5 ml of acetonitrile or acetonitrile/DMSO (9:1) is added. The substance is dissolved by putting the sample vessel in an ultrasonic bath for about 10 seconds. Then 0.5 ml of the respective (buffer) solution is added, and the sample is again treated in the ultrasonic bath.
• pH 4: 1 liter of Millipore water is adjusted to pH 4.0 with 1 N hydrochloric acid; • pH 5: 0.096 mol of citric acid and 0.2 mol of sodium hydroxide ad 1 liter of water; • pH 7.4: 90.0 g of sodium chloride, 13.61 g of potassium dihydrogen phosphate and 83.35 g of 1 N sodium hydroxide solution are made up to 1 liter with water; this solution is then further diluted 1:10 with Millipore water. • pH 8: 0.013 mol of borax and 0.021 mol of hydrochloric acid ad 1 liter of water.
5 μl portions of the sample solution are analyzed by HPLC for their content of unchanged test substance, and of parent substance (A) produced, every hour over a period of 24 hours at 37° C. The percentage areas of the appropriate peaks are used for quantification.
HPLC method for Examples 1-21:
Agilent 1100 with DAD (G1314A), binary pump (G1312A), autosampler (G1329A), column oven (G1316A), thermostat (G1330A); column: Kromasil 100 C18, 60 mm×2.1 mm, 3.5 μm; column temperature: 30° C.; eluent A: water+5 ml of perchloric acid/liter, eluent B: acetonitrile; gradient: 0-1.0 min 98% A, 2% B; 1.0-9.0 min 2% A, 98% B; 9.0-13.0 min 2% A, 98% B; 13.0-13.5 min 98% A, 2% B; 13.5-15.0 min 98% A, 2% B; flow rate: 0.75 ml/min; UV detection: 210 nm.
HPLC method for Examples 22-40:
The ratios of the peak areas (F) at the respective time points in relation to the peak areas at the starting time are shown in Table 3 for representative exemplary embodiments: […]

The nature of series [2]: i.v. pharmacokinetics in Wistar rats. In kind it is in vivo. The conditions noted are these: after i.v. bolus administration, male Wistar rats. The method, then: On the day before administration of the substance, a catheter for obtaining blood is implanted in the jugular vein of the experimental animals (male Wistar rats, body weight 200-250 g) under Isofluran® anesthesia.
On the day of the experiment, a defined dose of the test substance is administered as solution into the tail vein using a Hamilton® glass syringe (bolus administration, duration of administration <10 s). Blood samples (8-12 time points) are taken through the catheter sequentially over the course of 24 h after administration of the substance. Plasma is obtained by centrifuging the samples in heparinized tubes. Acetonitrile is added to a defined plasma volume per time point to precipitate proteins. After centrifugation, test substance and, where appropriate, known cleavage products of the test substance in the supernatant are determined quantitatively using a suitable LC/MS-MS method.
The measured plasma concentrations are used to calculate pharmacokinetic parameters of the test substance and of the active ingredient compound (A) liberated therefrom, such as AUC, Cmax, T1/2 (half-life) and CL (clearance).

In series [3] the test system is heart rate of anesthetized rats. Put plainly: Influence on the heart rate of anesthetized rats. In kind it is in vivo. The conditions noted are these: maximum decrease in the first 30 min after i.v. bolus of 100 μg/kg of (A) or equivalent dosages; anesthetized male Wistar rats. As for the experimental part:
Male Wistar rats with a body weight above 250 g are employed. In the night before the experiment, the animals receive no feed but still have free access to drinking water. Preparation and investigations are carried out under Trapanal® anesthesia (100 mg/kg i.p.). Injection and infusion take place through a catheter in the jugular vein, and the blood pressure is recorded via a catheter in the femoral artery (transducer: Braun, Melsungen). After the preparation, the animals are connected to a continuous infusion of physiological saline solution to compensate fluid losses. Test substance or placebo solution are administered intravenously as bolus after an equilibration time of about 1 h. Heart rate and arterial blood pressure are recorded during the equilibration and over a period of at least 30 min after the bolus injection with the aid of a digital evaluation program.
Table 5 lists the maximum heart rate decrease in the first 30 min after an i.v. bolus of 100 μg/kg of the active substance (A) or of equivalent dosages of representative exemplary embodiments: […]

Series [4] can be described thus: Determination of the solubility (24 h shaking at room temperature, ultracentrifugation, HPLC). The series is classed as physicochemical. The conditions noted are these: thermodynamic from solid. As for the experimental part: The test substance is suspended in water or dilute hydrochloric acid (pH 4) [Examples 1-21] or in 5% strength aqueous dextrose solution [Examples 22-40]. This suspension is shaken at room temperature for 24 h. After ultracentrifugation at 224 000 g for 30 min, the supernatant is diluted with DMSO and analyzed by HPLC. A two-point calibration plot of the test compound in DMSO is used for quantification.
Agilent 1100 with DAD (G1315A), quat. pump (G1311A), autosampler CTC HTS PAL, degasser (G1322A) and column thermostat (G1316A); column: Phenomenex Gemini C18, 5 μm, 50 mm×2 mm; temperature: 40° C.; eluent A: water/phosphoric acid pH 2, eluent B: acetonitrile; flow rate: 0.7 ml/min; gradient: 0-0.5 min 85% A, 15% B; ramp 0.5-3 min 10% A, 90% B; 3-3.5 min 10% A, 90% B; ramp 3.5-4 min 85% A, 15% B; 4-5 min 85% A, 15% B.
Agilent 1100 with DAD (G1315A), quat. pump (G1311A), autosampler CTC HTS PAL, degasser (G1322A) and column thermostat (G1316A); column: VDSoptilab Kromasil 100 C18, 3.5 μm, 60 mm×2.1 mm; temperature: 30° C.; eluent A: water+5 ml of perchloric acid/liter, eluent B: acetonitrile; flow rate: 0.75 ml/min; gradient: 0-0.5 min 98% A, 2% B; ramp 0.5-4.5 min 10% A, 90% B; 4.5-6 min 10% A, 90% B; ramp 6.5-6.7 min 98% A, 2% B; 6.7-7.5 min 98% A, 2% B.

[5] abbreviates: saline or isotonic, 5% strength aqueous dextrose solution.

Converted amounts (≈) assume the structure as drawn. Counter-ions that a name gives are not always drawn.

As for `N#Cc1c(N)nc(SCc2csc(-c3ccc(Cl)cc3)n2)c(C#N)c1-c1ccc(OCCOP(=O)(O)O)cc1` [Example 1, 2-{4-[2-Amino-6-({[2-(4-chlorophenyl)-1,3-thiazol-4-yl]methyl}thio)-3,5-dicyanopyridin-4-yl]-phenoxy}ethyl dihydrogenphosphate], the “% test substance after 4 h [F(t = 4 h) × 100/F(t = 0 h)]” value (“% test substance after 4 h” below) in series [1] (pH 4, 37° C.) is 100%; in series [1] (pH 8, 37° C.), 100%. Further, the “% test substance after 24 h [F(t = 24 h) × 100/F(t = 0 h)]” value (“% test substance after 24 h” below) in series [1] (pH 4, 37° C.) was 100%; in series [1] (pH 8, 37° C.) it was 100%. The “Detectability of the test substance (prodrug) in plasma” value in series [2] is listed as “no longer detectable in plasma even at the first measurement point”. For the same compound, the Heart rate decrease in series [3] is on record as 16%.

`N#Cc1c(NC(=O)CCCN)nc(SCc2csc(-c3ccc(Cl)cc3)n2)c(C#N)c1-c1ccc(OCCOC(=O)CCCN)cc1` [Example 25, 2-(4-{2-[(4-Aminobutanoyl)amino]-6-({[2-(4-chlorophenyl)-1,3-thiazol-4-yl]methyl}thio)-3,5-di-cyanopyridin-4-yl}phenoxy)ethyl 4-aminobutanoate dihydrochloride]: the solubility (commonly how much of the substance goes into solution per volume) at 24 h in series [4] (setting [5]) was found to be 730 µg/mL. For the same compound, in series [1] (pH 4, 37° C.), the “% test substance after 4 h” value was 100% and the “% test substance after 24 h” value is 100%. For the same compound, in series [1] (pH 7.4, 37° C.), the “% test substance after 4 h” value stood at 41% and the “% test substance after 24 h” value came to 4%.

In the case of `N#Cc1c(NC(=O)CCN)nc(SCc2csc(-c3ccc(Cl)cc3)n2)c(C#N)c1-c1ccc(OCCOC(=O)CCN)cc1` [Example 26, 2-{4-[2-(beta-Alanylamino)-6-({[2-(4-chlorophenyl)-1,3-thiazol-4-yl]methyl}thio)-3,5-dicyano-pyridin-4-yl]phenoxy}ethyl beta-alaninate dihydrochloride], the solubility at 24 h in series [4] (setting [5]) was more than 500 µg/mL. Also, in series [1] (pH 4, 37° C.), the “% test substance after 4 h” value is 100% and the “% test substance after 24 h” value worked out at 100%. In series [1] (pH 7.4, 37° C.), the “% test substance after 4 h” value came out at 11% and the “% test substance after 24 h” value was found to be 2%.

Compound `CC(C)[C@H](N)C(=O)OCCOc1ccc(-c2c(C#N)c(NC(=O)CCCN(C)C)nc(SCc3csc(-c4ccc(Cl)cc4)n3)c2C#N)cc1` [Example 37, 2-{4-[2-({[2-(4-Chlorophenyl)-1,3-thiazol-4-yl]methyl}thio)-3,5-dicyano-6-{[4-(dimethylamino)-butanoyl]amino}pyridin-4-yl]phenoxy}ethyl L-valinate bistrifluoracetate] yielded a solubility at 24 h in series [4] (setting [5]) of 160 µg/mL (≈ 218 µM). For the same compound, in series [1] (pH 4, 37° C.), the “% test substance after 4 h” value turned out to be 100% and the “% test substance after 24 h” value amounted to 100%. Moreover, in series [1] (pH 7.4, 37° C.), the “% test substance after 4 h” value is 97% and the “% test substance after 24 h” value came to 84%.

In the case of `N#Cc1c(N)nc(SCc2csc(-c3ccc(Cl)cc3)n2)c(C#N)c1-c1ccc(OCCOC(=O)[C@@H](N)CCCNC(=N)N)cc1` [Example 38, 2-{4-[2-Amino-6-({[2-(4-chlorophenyl)-1,3-thiazol-4-yl]methyl}sulfanyl)-3,5-dicyanopyridin-4-yl]-phenoxy}ethyl L-argininate trihydrochloride], in series [4] (setting [5]), the solubility at 24 h is more than 500 µg/mL. In series [1] (pH 4, 37° C.), the “% test substance after 4 h” value was 100% and the “% test substance after 24 h” value is 100%. For the same compound, in series [1] (pH 7.4, 37° C.), the “% test substance after 4 h” value amounted to 100% and the “% test substance after 24 h” value is reported as 94%.

Take `N#Cc1c(N)nc(SCc2csc(-c3ccc(Cl)cc3)n2)c(C#N)c1-c1ccc(OCCOC(=O)[C@H](N)CCCN)cc1` [Example 39, 2-{4-[2-Amino-6-({[2-(4-chlorophenyl)-1,3-thiazol-4-yl]methyl}sulfanyl)-3,5-dicyanopyridin-4-yl]-phenoxy}ethyl D-ornithinate dihydrochloride]: the solubility at 24 h in series [4] (setting [5]) is more than 500 µg/mL. For the same compound, in series [1] (pH 4, 37° C.), the “% test substance after 4 h” value came to 100% and the “% test substance after 24 h” value is listed as 100%. Also, in series [1] (pH 7.4, 37° C.), the “% test substance after 4 h” value is 0% and the “% test substance after 24 h” value is listed as 0%.

`N#Cc1c(N)nc(SCc2csc(-c3ccc(Cl)cc3)n2)c(C#N)c1-c1ccc(OCCOC(=O)[C@@H](N)CN)cc1` [Example 40, 2-{4-[2-Amino-6-({[2-(4-chlorophenyl)-1,3-thiazol-4-yl]methyl}sulfanyl)-3,5-dicyanopyridin-4-yl]-phenoxy}ethyl-3-amino L-alaninate dihydrochloride] yielded a solubility at 24 h in series [4] (setting [5]) of more than 500 µg/mL. Moreover, in series [1] (pH 4, 37° C.), the “% test substance after 4 h” value worked out at 99% and the “% test substance after 24 h” value is reported as 94%. For the same compound, in series [1] (pH 7.4, 37° C.), the “% test substance after 4 h” value is on record as 90% and the “% test substance after 24 h” value is 53%.

As for `N#Cc1c(N)nc(SCc2csc(-c3ccc(Cl)cc3)n2)c(C#N)c1-c1ccc(OCCO)cc1` [compound (A), 2-amino-6-({[2-(4-chlorophenyl)-1,3-thiazol-4-yl]methyl}thio)-4-[4-(2-hydroxy-ethoxy)phenyl]pyridine-3,5-dicarbonitrile, reference compound], the solubility at 24 h in series [4] (aqueous buffer, dilute hydrochloric acid (pH 4)) was less than 1 µg/mL; in series [4] (setting [5]), less than 0.1 µg/mL. In addition, the Heart rate decrease in series [3] stood at 24%.
